Results from ChEMBL document CHEMBL5053501, “1,4,9-Triazaspiro[5.5]undecan-2-one Derivatives as Potent and Selective METTL3 Inhibitors” (J Med Chem, 2021).
In brackets after ≈: the same amount, converted by molar mass. Each block holds one compound with its values, some of them ahead of it. Activity calls are given as the source filed them. No cut-off for these calls is given here.

What was measured:
[1] = target: N6-adenosine-methyltransferase catalytic subunit (Homo sapiens, UniProt Q86U44); assay: Inhibition of recombinant […] (unknown origin) expressed in baculovirus infected Sf9 cells assessed as decrease in N6-methyladenosine level in oligonucleotide substrate by TR-FRET assay
Chain of N6-adenosine-methyltransferase catalytic subunit (Q86U44 whole entry): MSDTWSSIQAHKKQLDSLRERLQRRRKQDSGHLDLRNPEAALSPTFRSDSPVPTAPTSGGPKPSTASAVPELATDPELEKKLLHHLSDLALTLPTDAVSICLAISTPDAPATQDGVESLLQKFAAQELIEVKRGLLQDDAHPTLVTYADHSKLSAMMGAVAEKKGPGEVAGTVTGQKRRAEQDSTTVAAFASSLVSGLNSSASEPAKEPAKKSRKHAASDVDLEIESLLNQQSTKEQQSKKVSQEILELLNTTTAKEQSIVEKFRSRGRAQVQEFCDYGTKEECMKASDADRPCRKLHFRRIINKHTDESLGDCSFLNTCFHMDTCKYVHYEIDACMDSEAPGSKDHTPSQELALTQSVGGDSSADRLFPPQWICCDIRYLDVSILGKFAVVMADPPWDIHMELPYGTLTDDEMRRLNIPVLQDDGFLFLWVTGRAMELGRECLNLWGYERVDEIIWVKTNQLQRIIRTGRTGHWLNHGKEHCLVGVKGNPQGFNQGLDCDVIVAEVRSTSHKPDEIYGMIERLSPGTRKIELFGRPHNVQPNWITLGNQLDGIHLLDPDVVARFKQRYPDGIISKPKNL

[2] = target: T1, METTL3/METTL14 (Homo sapiens) (UniProt Q86U44+Q9HCE5); settings: dose 1000.0 µM
[3] = species on record: Homo sapiens; assay: Binding affinity to human METTL1 assessed as change in melting temperature at 1000 uM by thermal shift assay
[4] = species on record: Homo sapiens; assay: Binding affinity to human METTL16 assessed as change in melting temperature at 1000 uM by thermal shift assay
[5] = Metabolic stability in rat liver microsomes assessed as half life by LC-MS analysis; assay type: ADME, Microsome
[6] = Kinetic solubility of the compound in PBS at pH 7.4 at 100 uM incubated for 1 hr by LCMS/MS analysis; assay type: physicochemical; settings: read-out: Kinetic_solubility
[7] = species on record: Homo sapiens; assay: Binding affinity to human METTL1 assessed as change in melting temperature at 100 uM by thermal shift assay
[8] = Reduction in m6A/A ratio in poly-adenylated RNA fraction of human MOLM-13 cells measured after 16 hrs by UPLC-MS/MS analysis; assay type: functional, cell-based
[9] = test system: MOLM-13; assay: Growth inhibition of human MOLM-13 cells assessed as cell viability measured after 3 days; assay type: functional; settings: MOLM-13, 72 h, time 3 day
[10] = test system: MOLM-13; assay: Reduction in m6Am levels in total RNA fraction in human MOLM-13 cells at 10 uM measured after 6 days by UPLC-MS/MS analysis; assay type: functional, cell-based; settings: time 6.0 day
[11] = test system: MOLM-13; assay: Effect on METTL3 expression in human MOLM-13 cells at 10 uM incubated for 16 hrs by Western blotting analysis; assay type: functional, cell-based
[12] = test system: MOLM-13; assay: Reduction in m1A levels in mRNA fraction in human MOLM-13 cells at 10 uM measured after 6 days by UPLC-MS/MS analysis; assay type: functional, cell-based; settings: time 6.0 day
[13] = test system: PC-3; assay: Growth inhibition of human PC-3 cells assessed as cell viability measured after 3 days; assay type: functional; settings: PC-3, 72 h, time 3 day
[14] = test system: MOLM-13; assay: Reduction in m6A levels in mRNA fraction in human MOLM-13 cells at 10 uM measured after 6 days by UPLC-MS/MS analysis; assay type: functional, cell-based; settings: time 6.0 day
[15] = species on record: Homo sapiens; assay: Binding affinity to human METTL16 assessed as change in melting temperature at 100 uM by thermal shift assay
[16] = target: T1, METTL3/METTL14 (Homo sapiens); settings: dose 100.0 µM
[17] = test system: MOLM-13; assay: Reduction in m7G levels in mRNA fraction in human MOLM-13 cells at 10 uM measured after 6 days by UPLC-MS/MS analysis; assay type: functional, cell-based; settings: time 6.0 day
[18] = test system: MOLM-13; assay: Reduction in m6A levels in total RNA fraction in human MOLM-13 cells at 10 uM measured after 6 days by UPLC-MS/MS analysis; assay type: functional, cell-based; settings: time 6.0 day
[19] = test system: PC-3; assay: Effect on METTL3 expression in human PC-3 cells at 10 uM incubated for 16 hrs by Western blotting analysis; assay type: functional, cell-based

Compound: CC1(C)CCN(Cc2ccc(N3CC(=O)NC4(CCN(c5nc(Cl)nc6[nH]ccc56)CC4)C3)cc2)CC1
half-life [5]: 32 min | solubility kinetic at 1 h, 100 µM [6]: 45 µM (≈ 23.5 µg/mL)

Compound: CNc1cc(N2CC3(CN(c4ccc(CN5CCC(C)(C)CC5)cc4)CC(=O)N3)C2)ncn1
half-life [5]: 70 min | solubility kinetic at 1 h, 100 µM [6]: 86 µM (≈ 38.7 µg/mL)

Compound: CNc1cc(N2CCC3(CC2)CN(c2cc(F)c(CN4CCC(C)(C)CC4)cc2F)CC(=O)N3)ncn1
deltaTm [7]: inactive | EC50 [8]: 0.7 µM | GI50 [9]: 12 µM | Activity [10]: Active | Activity [11]: Active | Activity [12]: inactive | GI50 [13]: 70 µM | Activity [14]: Active | deltaTm [15]: inactive | ΔTm [16]: 4.7 °C | Activity [17]: inactive | Activity [18]: Active | Activity [19]: Active

Now from value to compound:

IC50 [1]: 0.59 µM | ΔTm [2]: 3.7 °C | ΔTm [3]: 6.3 °C | ΔTm [4]: 0.8 °C
Compound: Nc1ncnc2c1ncn2[C@@H]1O[C@H](CSCC[C@H](N)C(=O)O)[C@@H](O)[C@H]1O [S-ADENOSYLHOMOCYSTEINE]

IC50 [1]: 7 µM
Compound: CNc1cc(N2CCCC(O)(CNC(=O)c3ccc(CN4CCC(C)(C)CC4)cc3)C2)ncn1 (configuration not stated)
